The test system of experiment [1] is Huh-7 HCV replicon cells (sub-line 5-15; genotype 1b). Briefly: Replicon ELISA cell based assay, genotype 1b. To be noted: Hepatitis C virus, Huh-7 genotype 1b replicon (sub-line 5-15), 72 hours. The arrangement: species or system HCV genotype 1b. On the procedure:
(§1) 100 μL of medium containing 10% FCS were added to each well of clear, flat-bottomed 96 well microplates, excepting wells in the top row. Test compound was diluted in assay medium to twice the final required starting concentration from a 40 mM stock solution in DMSO. 200 μL of the starting dilution were introduced into two wells each in the top row and doubling dilutions made down the plate by the sequential transfer of 100 μL aliquots with thorough mixing in the wells; the final 100 μL were discarded. The two bottom rows were not used for compound dilutions. Huh-7 HCV replicon cell monolayers nearing confluency were stripped from growth flasks with versene-trypsin solution and the cells were resuspended in assay medium at either 2×10^5 cells/mL (sub-line 5-15; genotype 1b; Lohmann, V., Komer, F., Koch, J-O., Herian, U., Thielmann, L. And Bartenschlager, R., 1999, Science, 285, pp 110-113) or at 3×10^5 cells/mL (genotype 1a; Gu, B., Gates, A. T., Isken, O., Behrens, S. E. and Sarisky, R. T., J. Virol., 2003, 77, 5352-5359). 100 μL of cell suspension were added to all wells and the plates incubated at 37° C. for 72 hours in a 5% CO2 atmosphere.
(§2) Following incubation, the assay medium was aspirated from the plates. The cell sheets were washed by gentle immersion in phosphate buffered saline (PBS), which was then aspirated off, and fixed with acetone:methanol (1:1) for 5 minutes. Following a further wash with PBS, 100 μL of ELISA diluent (PBS+0.05% v/v Tween 20+2% w/v skimmed milk powder) were added to all wells and the plates incubated at 37° C. for 30 minutes on an orbital platform. The diluent was removed and each well then received 50 μL of a 1/200 dilution of anti-HCV specific, murine, monoclonal antibody (either Virostat #1872 or #1877), except for wells in one of the compound-free control rows which received diluent alone to act as negative controls. The plates were incubated at 37° C. for 2 hours and washed 3 times with PBS/0.05% Tween 20, then 50 μL of horseradish peroxidase conjugated, anti-mouse, rabbit polyclonal serum (Dako #P0260), diluted 1/1000, were added to all wells. The plates were incubated for a further hour, the antibody removed and the cell sheets washed 5 times with PBS/Tween and blotted dry. The assay was developed by the addition of 50 μL of ortho-phenylenediamine/peroxidase substrate in urea/citrate buffer (SigmaFast, Sigma #P-9187) to each well, and colour allowed to develop for up to 15 minutes. The reaction was stopped by the addition of 25 μL per well of 2 M sulphuric acid and the plates were read at 490 nm on a Fluostar Optima spectrophotometer.
(§3) The substrate solution was removed and the plates were washed in tap water, blotted dry and the cells stained with 5% carbol fuchsin in water for 30 minutes. The stain was discarded and the cell sheets washed, dried and examined microscopically to assess cytotoxicity.
(§4) The absorbance values from all compound-free wells that had received both primary and secondary antibodies were averaged to obtain a positive control value. The mean absorbance value from the compound-free wells that had not received the primary antibody was used to provide the negative (background) control value. The readings from the duplicate wells at each compound concentration were averaged and, after the subtraction of the mean background from all values, were expressed as a percentage of the positive control signal. The quantifiable and specific reduction of expressed protein detected by the ELISA in the presence of a drug can be used as a measure of replicon inhibition. GraFit software was used to plot the curve of percentage inhibition against compound concentration and derive the 50% inhibitory concentration (IC50) for the compound.

Experiment [2] has as its system Huh-7 HCV replicon cells (genotype 1a). Kind of experiment: Replicon ELISA cell based assay, genotype 1a. More on the design: species or system HCV genotype 1a. To be noted: Hepatitis C virus, Huh-7 genotype 1a replicon, 72 hours. On the procedure: as §1, §2, §3, §4
In general terms: In antiviral work, replicon cells carry a viral genome segment that copies itself.

Bounds are passed on as bounds.

In general, IC50 refers to the midpoint of a concentration-inhibition curve. `COc1cc(C(=O)N2[C@@H](c3nccs3)[C@@H](c3cnccn3)C[C@@]2(Cc2ccsn2)C(=O)O)ccc1C(C)(C)C` (single isomer, unassigned; enantiomer a) [Example 8]: the IC50 in experiment [1] was less than 0.1 µM; in experiment [2] it was less than 10 µM.

As for `COc1cc(C(=O)N2[C@@H](c3ncc(C)s3)[C@@H](c3cnccn3)C[C@@]2(Cn2cccn2)C(=O)O)ccc1C(C)(C)C` (single isomer, unassigned; enantiomer a) [Example 10], the IC50 in experiment [1] is less than 0.1 µM; in experiment [2], less than 10 µM.

Take `COc1cc(C(=O)N2[C@@H](c3nccs3)[C@@H](c3cnccn3)C[C@@]2(Cn2cccn2)C(=O)O)ccc1C(C)(C)C` (single isomer, unassigned; enantiomer a) [Example 12]: the half-inhibitory concentration (IC50) was less than 0.1 µM in experiment [1] and less than 10 µM in experiment [2].

Turning to `COc1cc(C(=O)N2[C@@H](c3ncc(C)s3)[C@@H](c3cnccn3)C[C@@]2(Cc2nccs2)C(=O)O)ccc1C(C)(C)C` (single isomer, unassigned; enantiomer a) [Example 14], the IC50 is less than 0.1 µM in experiment [1] and less than 10 µM in experiment [2].

In the case of `COc1cc(C(=O)N2[C@@H](c3ncc(C)s3)[C@@H](c3cnccn3)C[C@@]2(Cc2cscn2)C(=O)O)ccc1C(C)(C)C` (single isomer, unassigned; enantiomer a) [Example 16], the IC50 in experiment [1] was less than 0.1 µM; in experiment [2], less than 10 µM.

Values taken from patent publication US20090227600A1, “4-(PYRAZINE-2-YL) -PYRROLIDINE -2-CARBOXYLIC ACID COMPOUNDS AND DERIVATIVES THEREOF AS HEPATITIS C VIRUS INHIBITORS” (priority 2004, published 2009).
